Molecular target: LSD1 (Homo sapiens (Human), UniProt O60341)
Experiment: LSD1 inhibitory activity on an enzyme level, AlphaScreen method
Assay type: biochemical
Settings: in vitro
Protocol: This experiment was carried out to test the in vitro inhibitory activity of the compounds of the present disclosure against LSD1.
Experimental steps and a method: In this experiment, the in vitro inhibitory activity of the compounds of the present disclosure against LSD1 on an enzyme level was tested by using an AlphaScreen method. The experimental steps are described as follows: • a) preparation of a 1× buffer: • preparing a 1× buffer (improved trihydroxymethylaminomethane buffer); • b) continuous dilution of the compounds: • transferring the compounds of the present disclosure to a porous plate by using Echo at a final DMSO concentration of 1%; • c) preparation of an enzyme solution: • preparing an enzyme solution in the 1× buffer; • d) preparation of a substrate solution: • adding polypeptide to the 1× buffer to prepare a substrate solution; • e) transferring 5 μL of the enzyme solution or the 1× buffer to the porous plate; • f) conducting incubation at room temperature for 15 min; • g) adding 5 μL of the substrate solution to each well to induce a reaction; • h) conducting incubation at room temperature for 40 min; • i) preparing a 1× Alphalisa buffer; • j) preparation of a 1× Alphalisa buffer solution of receptors and donors: • adding 15 μL of a receptor and donor solution in dark light environment, and conducting incubation at room temperature for 60 min; • k) reading an endpoint in an EnSpire Alpha mode; and • l) data processing: • calculating an inhibitory value according to an equation 1:
Inh %=(Max−Signal)/(Max−Min)*100; and equation 1: • calculating an IC50 value by using XL-Fit according to an equation 2:
Y=Bottom+(Top-Bottom)/(1+(IC50/X)[…]), equation 2: • where Y indicates the inhibitory rate, and X indicates the concentration of a compound.

| Molecule | IC50 [nM] |
| --- | --- |
| CC(C)(O)Cn1ncc2cc(-c3c(-c4ccc(C#N)c(F)c4)nc4c(N5CCC[C@@H](N)C5)nccn34)ccc21 [Compound 11, (R)-4-(8-(3-aminopiperidin-1-yl)-3-(1-(2-hydroxy-2-methylpropyl)-1H-indazol-5-yl)imidazo[1,2-a]pyrazin-2-yl)-2-fluorobenzonitrile] | 0.97 |
| COc1ccc(-c2c(-c3ccc(C#N)c(F)c3)nc3c(NC4CCCNC4)nccn23)cc1F (centres unmarked) [Compound 7, 2-fluoro-4-(3-(3-fluoro-4-methoxyphenyl)-8-(piperidin-3-ylamino)imidazo[1,2-a]pyrazin-2-yl)benzonitrile] | 12 |
| (R)4-(7-(3-aminopiperidin-1-yl)-3-(3-fluoro-4-methoxyphenyl)imidazo [1,5-a]pyrazin-2-yl)-2-fluorobenzonitrile [Compound 4] | 1 |
| 4-(7-(4-aminopiperidin-1-yl)-3-(3-fluoro-4-methoxyphenyl)imidazo [1,5-a]pyrazin-2-yl)-2-fluorobenzonitrile [Compound 3] | 2.6 |
| COc1ccc(-c2c(-c3ccc(C#N)c(F)c3)nc3c(N[C@@H]4CC[C@H](N)C4)nccn23)cc1F (relative stereo) [Compound 14, cis-4-(8-(((1R,3S)-3-aminocyclopentyl)amino)-3-(3-fluoro-4-methoxyphenyl)imidazo[1,2-a]pyrazin-2-yl)-2-fluorobenzonitrile] | 37 |
| COc1ccc(-c2c(-c3ccc(C#N)c(F)c3)nc3c(N4CCC(N)CC4)nccn23)cc1F [Compound 1, 4-(8-(4-aminopiperidin-1-yl)-3-(3-fluoro-4-methoxyphenyl)imidazo [1,2-a]pyrazin-2-yl)-2-fluorobenzonitrile] | 7.4 |
| COc1ccc(-c2c(-c3ccc(C#N)c(F)c3)nc3c(N4CCC[C@@H](N)C4)nccn23)cc1F [Compound 2, (R)-4-(8-(3-aminopiperidin-1-yl)-3-(3-fluoro-4-methoxyphenyl)imidazo [1,2-a]pyrazin-2-yl)-2-fluorobenzonitrile] | 1.3 |
| Cn1nnc2cc(-c3c(-c4ccc(C#N)c(F)c4)nc4c(N5CCC[C@@H](N)C5)nccn34)c(F)cc21 [Compound 30, (R)-4-(8-(3-aminopiperidin-1-yl)-3-(6-fluoro-1-methyl-1H-benzo[d][1,2,3]triazol-5-yl)imidazo[1,2-a]pyrazin-2-yl)-2-fluorobenzonitrile] | 1 |
| CC(C)(O)Cc1ccc(-c2c(-c3ccc(C#N)c(F)c3)nc3c(N4CCC[C@@H](N)C4)nccn23)c(F)c1 [Compound 22, (R)-4-(8-(3-aminopiperidin-1-yl)-3-(2-fluoro-4-(2-hydroxy-2-methylpropyl)phenyl)imidazo[1,2-a]pyrazin-2-yl)-2-fluorobenzonitrile] | 2.5 |
| COc1ccc(-c2c(-c3ccc(C#N)c(F)c3)nc3c(N[C@@H]4CC[C@@H](N)C4)nccn23)cc1F (relative stereo) [Compound 15, trans-4-(8-(((1R,3R)-3-aminocyclopentyl)amino)-3-(3-fluoro-4-methoxyphenyl)imidazo[1,2-a]pyrazin-2-yl)-2-fluorobenzonitrile] | 11 |
| CCC(O)(CC)Cn1nnc2cc(-c3c(-c4ccc(C#N)c(F)c4)nc4c(N5CCC[C@H](N)C5)nccn34)c(F)cc21 [Compound 26, (S)-4-(8-(3-aminopiperidin-1-yl)-3-(1-(2-ethyl-2-hydroxybutyl)-6-fluoro-1H-benzo[d][1,2,3]triazol-5-yl)imidazo[1,2-a]pyrazin-2-yl)-2-fluorobenzonitrile] | 0.7 |
| CC(C)(O)Cn1nnc2cc(-c3c(-c4ccc(C#N)c(F)c4)nc4c(N5[C@@H]6CC[C@H]5C[C@@H](NC(=O)OC(C)(C)C)C6)nccn34)c(F)cc21 [Compound 28, ((1R,3r,5S)-8-(2-(4-cyano-3-fluorophenyl)-3-(6-fluoro-1-(2-hydroxy-2-methylpropyl)-1H-benzo[d][1,2,3]triazol-5-yl)imidazo[1,2-a]pyrazin-8-yl)-8-azabicyclo[3.2.1]octane-3-yl)carbamate] | 5.5 |
| Cn1cc2cc(-c3c(-c4ccc(C#N)c(F)c4)nc4c(N5CCC[C@@H](N)C5)nccn34)ccc2n1 [Compound 17, (R)-4-(8-(3-aminopiperidin-1-yl)-3-(2-methyll-2H-indazol-5-yl)imidazo [1,2-a]pyrazin-2-yl)-2-fluorobenzonitrile] | 6.3 |
| CN1CCOc2cc(-c3c(-c4ccc(C#N)c(F)c4)nc4c(N5CCC[C@@H](N)C5)nccn34)ccc21 [Compound 9, (R)-4-(8-(3-aminopiperidin-1-yl)-3-(4-methyll-3,4-dihydro-2H-benzo [b][1,4]oxazin-7-yl)imidazo[1,2-a]pyrazin-2-yl)-2-fluorobenzonitrile] | 0.88 |
| CC(C)(O)Cn1ncc2cc(-c3c(-c4ccc(C#N)c(F)c4)nc4c(N5CCC[C@@H](N)C5)nccn34)c(F)cc21 [Compound 19, (R)-4-(8-(3-aminopiperidin-1-yl)-3-(6-fluoro-1-(2-hydroxy-2-methylpropyl)-1H-indazol-5-yl)imidazo[1,2-a]pyrazin-2-yl)-2-fluorobenzonitrile] | 0.71 |
| COc1ccc(-c2c(-c3ccc(C#N)c(F)c3)nc3c(NC4CCNC4)nccn23)cc1F (centres unmarked) [Compound 16, 2-fluoro-4-(3-(3-fluoro-4-methoxyphenyl)-8-(pyrrolidin-3-ylamino)imidazo[1,2-a]pyrazin-2-yl)benzonitrile] | 15 |
| CC(C)(O)Cn1nnc2cc(-c3c(-c4ccc(C#N)c(F)c4)nc4c(N5CCC[C@H](N)C5)nccn34)c(F)cc21 [Compound 23, (S)-4-(8-(3-aminopiperidin-1-yl)-3-(6-fluoro-1-(2-hydroxy-2-methylpropyl)-1H-benzo[d][1,2,3]triazol-5-yl)imidazo[1,2-a]pyrazin-2-yl)-2-fluorobenzonitrile] | 4.4 |
| COc1ccc(-c2c(-c3ccc(C#N)c(F)c3)nc3c(NCC4CCNC4)nccn23)cc1F (centres unmarked) [Compound 13, 2-fluoro-4-(3-(3-fluoro-4-methoxyphenyl)-8-((pyrrolidin-3-ylmethyl)amino)imidazo[1,2-a]pyrazin-2-yl)benzonitrile] | 56 |
| N#Cc1ccc(-c2nc3c(N4CCC[C@@H](N)C4)nccn3c2-c2cnn(CC(F)(F)F)c2)cc1F [Compound 10, (R)-4-(8-(3-aminopiperidin-1-yl)-3-(1-(2,2,2-trifluoroethyl)-1H-pyrazol-4-yl)imidazo[1,2-a]pyrazin-2-yl)-2-fluorobenzonitrile] | 7.5 |
| CC(C)(O)Cn1cc2cc(-c3c(-c4ccc(C#N)c(F)c4)nc4c(N5CCC[C@@H](N)C5)nccn34)c(F)cc2n1 [Compound 21, (R)-4-(8-(3-aminopiperidin-1-yl)-3-(6-fluoro-2-(2-hydroxy-2-methylpropyl)-2H-indazol-5-yl)imidazo[1,2-a]pyrazin-2-yl)-2-fluorobenzonitrile] | 2.3 |
| COc1ccc(-c2c(-c3ccc(C#N)c(F)c3)nc3c(NCC4CCCN4)nccn23)cc1F (centres unmarked) [Compound 6, 2-fluoro-4-(3-(3-fluoro-4-methoxyphenyl)-8-((pyrrolidin-2-ylmethyl)amino)imidazo[1,2-a]pyrazin-2-yl)benzonitrile] | 45 |
| Cn1ncc2cc(-c3c(-c4ccc(C#N)c(F)c4)nc4c(N5CCC[C@@H](N)C5)nccn34)ccc21 [Compound 8, (R)-4-(8-(3-aminopiperidin-1-yl)-3-(1-methyll-1H-indazol-5-yl)imidazo [1,2-a]pyrazin-2-yl)-2-fluorobenzonitrile] | 1.7 |
| Cn1ncc2cc(-c3c(-c4ccc(C#N)c(F)c4)nc4c(N5CCC[C@@H](N)C5)nccn34)ccc21 [Compound 5, (R)-4-(8-(3-aminopiperidin-1-yl)-3-(1-methyll-1H-indazol-5-yl)imidazo [1,2-a]pyrazin-2-yl)-2-fluorobenzonitrile] | 2.3 |

Reference: patent publication US20230399332A1, “IMIDAZO[1,2-a]PYRAZINE OR PYRAZOLO[1,5-a]PYRIMIDINE DERIVATIVE AND USE THEREOF” (TENCENT TECHNOLOGY (SHENZHEN) COMPANY LIMITED, priority 2022, published 2023)
